Laboratory results published in US9468640B2, “Piperidin-4-yl-pyridazin-3-ylamine derivatives as fast dissociating dopamine 2 receptor antagonists” (Janssen Pharmaceutica N.V., priority 2005, dated 2016).

System: not given
Experiment: not given
Conditions: not given

SMILES | melting point
Fc1ccc(CN2CCC(Nc3ccc(C(F)(F)F)nn3)CC2)cc1 [Example E2, N-[1-(4-fluorobenzyl)piperidin-4-yl]-6-(trifluoromethyl)pyridazin-3-amine] | 163.3 to 165.3 °C

Biological target: T1, human Dopamine D2L receptor (Homo sapiens, UniProt P14416)
T1 construct: expressed in transfected cells; host or cells: CHO cells
Experiment: In vitro binding affinity for human D2L receptor ([3H]spiperone competition)
Conditions: membranes of human D2L receptor-transfected CHO cells, 30 min, 37° C.
Experimental: Frozen membranes of human Dopamine D2L receptor-transfected CHO cells were thawed, briefly homogenised using an Ultra-Turrax T25 homogeniser and diluted in Tris-HCl assay buffer containing NaCl, CaCl2, MgCl2, KCl (50, 120, 2, 1, and 5 mM respectively, adjusted to pH 7.7 with HCl) to an appropriate protein concentration optimised for specific and non-specific binding. Radioligand [^3H]Spiperone (NEN, specific activity ˜70 Ci/mmol) was diluted in assay buffer at a concentration of 2 nmol/L. Prepared radioligand (50 μl), along with 50 μl of either the 10% DMSO control, Butaclamol (10^−6 mol/l final concentration), or compound of interest, was then incubated (30 min, 37° C.) with 400 μl of the prepared membrane solution. Membrane-bound activity was filtered through a Packard Filtermate harvester onto GF/B Unifilterplates and washed with ice-cold Tris-HCl buffer (50 mM; pH 7.7; 6×0.5 ml). Filters were allowed to dry before adding scintillation fluid and counting in a Topcount scintillation counter. Percentage specific bound and competition binding curves were calculated using S-Plus software (Insightful).

T1 sequence (P14416 whole entry): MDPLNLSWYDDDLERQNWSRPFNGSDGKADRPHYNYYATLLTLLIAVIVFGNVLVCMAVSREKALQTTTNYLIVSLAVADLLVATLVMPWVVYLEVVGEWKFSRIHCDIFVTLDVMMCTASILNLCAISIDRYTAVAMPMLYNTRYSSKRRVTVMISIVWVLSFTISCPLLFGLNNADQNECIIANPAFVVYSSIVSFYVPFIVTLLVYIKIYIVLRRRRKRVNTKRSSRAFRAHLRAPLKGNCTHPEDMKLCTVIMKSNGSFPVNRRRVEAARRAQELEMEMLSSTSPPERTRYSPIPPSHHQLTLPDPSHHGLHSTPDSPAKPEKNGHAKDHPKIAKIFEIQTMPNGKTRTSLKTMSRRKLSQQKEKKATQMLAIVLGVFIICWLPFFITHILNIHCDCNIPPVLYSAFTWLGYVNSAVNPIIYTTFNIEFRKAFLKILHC

SMILES | IC50
CN(c1ccc(Cl)nn1)C1CCN(Cc2cccc(C(F)(F)F)c2)CC1 [Example E25, N-[1-(3-trifluoromethylbenzyl)piperidin-4-yl]-N-methyl-6-chloropyridazin-3-amine] | < 6.31 µM
COc1ccc(CN2CCC(Nc3ccc(C(F)(F)F)nn3)CC2)cc1F [Example E41, N-[1-(3-fluoro-4-methoxybenzyl)piperidin-4-yl]-6-(trifluoromethyl)pyridazin-3-amine] | < 6.31 µM
Fc1ccccc1CN1CCC(Nc2ccc(C(F)(F)F)nn2)CC1 [Example E8, N-[1-(2-fluorobenzyl)piperidin-4-yl]-6-(trifluoromethyl)pyridazin-3-amine] | < 6.31 µM
CC(c1ccc(F)cc1)N1CCC(Nc2ccc(C(F)(F)F)nn2)CC1 (stereo not drawn) [Example E44, N-[1-(4-fluoro-α-methylbenzyl)piperidin-4-yl]-6-(trifluoromethyl)pyridazin-3-amine] | < 6.31 µM
Fc1ccc(CN2CCC(Nc3ccc(C(F)(F)F)nn3)CC2)c(F)c1 [Example E42, N-[1-(2,4-difluorobenzyl)piperidin-4-yl]-6-(trifluoromethyl)pyridazin-3-amine] | < 6.31 µM
CC(c1ccc(F)c(F)c1)N1CCC(Nc2ccc(C(F)(F)F)nn2)CC1 (racemic) [Example E45, (R,S)—N-[1-(3,4-difluoro-α-methylbenzyl)piperidin-4-yl]-6-(trifluoromethyl)pyridazin-3-amine] | < 6.31 µM
